Data as given in the supplement of paper PMC4862054.

These compounds were tested on CAL-51 (assay: normalised viability (% of control), CellTiter-Blue; higher = more viable cells (about 100 = DMSO control)). Details: 3000 nM; incubation time: 72 h.
Experimental: (§1)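 DSRT, CellTiter-Blue viability, 72 h incubation. Signal is normalised to DMSO and benzethonium chloride controls. Value is the normalised response at dose 8.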
`C[C@H]1C[C@@H]2[C@H]([C@@H](O)C[C@@]3(C)[C@H]2CC[C@]3(O)C(=O)CO)[C@@]2(C)C=CC(=O)C=C12` [Methylprednisolone] was tested, and the normalised viability was 105%.
Work on `COc1cc([C@@H]2c3cc4c(cc3[C@@H](O[C@@H]3O[C@@H]5CO[C@@H](c6cccs6)O[C@H]5[C@H](O)[C@H]3O)[C@H]3COC(=O)[C@H]23)OCO4)cc(OC)c1O` [Teniposide] yielded a normalised viability of 12.6%.
Work on `CCc1cncnc1N1CCN(Cc2nc3ccc(C(F)(F)F)cc3[nH]2)CC1` yielded a normalised viability of 88.9%.
`Oc1ncc(N(CCCl)CCCl)c(O)n1` [Uracil mustard] gave a normalised viability of 99.6%.

The compounds below were run on MDA-MB-453 in the same assay as above. Details: 300 nM; incubation time: 72 h.
Experimental: as §1
Work on `COc1cc2c(Oc3ccc4[nH]c(C)cc4c3F)ncnc2cc1OCCCN1CCCC1` [Cediranib] yielded a normalised viability of 86.2%.
With `C=CC(=O)N1CCC[C@@H](n2nc(-c3ccc(Oc4ccccc4)cc3)c3c(N)ncnc32)C1` the normalised viability was 26.9%.

Same assay, conditions: 3000 nM; incubation time: 72 h
For `NCCCNCCSP(=O)(O)O` [Amifostine], the normalised viability was 96.6%.
`Nc1nc2[nH]cc(CCc3ccc(C(=O)N[C@@H](CCC(=O)O)C(=O)O)cc3)c2c(=O)[nH]1` [Pemetrexed] was tested, and the normalised viability was 83%.
`C[C@H]1C[C@@H]2[C@H]([C@@H](O)C[C@@]3(C)[C@H]2CC[C@]3(O)C(=O)CO)[C@@]2(C)C=CC(=O)C=C12` [Methylprednisolone] showed a normalised viability of 74.1%.
In the case of `COc1cc([C@@H]2c3cc4c(cc3[C@@H](O[C@@H]3O[C@@H]5CO[C@@H](c6cccs6)O[C@H]5[C@H](O)[C@H]3O)[C@H]3COC(=O)[C@H]23)OCO4)cc(OC)c1O` [Teniposide], the normalised viability is reported as 52.4%.
Compound `CCc1cncnc1N1CCN(Cc2nc3ccc(C(F)(F)F)cc3[nH]2)CC1` has a normalised viability of 88.7%.
Compound `Oc1ncc(N(CCCl)CCCl)c(O)n1` [Uracil mustard] has a normalised viability of 92.8%.

These compounds were tested on CAL-85-1 in the same assay as above. Details: 1000 nM; incubation time: 72 h.
Experimental: (§2)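 DSRT, CellTiter-Blue viability, 72 h incubation. Signal is normalised to DMSO and benzethonium chloride controls. Value is the normalised response at dose 9.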
For `COc1cc2c(Oc3ccc4[nH]c(C)cc4c3F)ncnc2cc1OCCCN1CCCC1` [Cediranib], the normalised viability was 102%.
Work on `C=CC(=O)N1CCC[C@@H](n2nc(-c3ccc(Oc4ccccc4)cc3)c3c(N)ncnc32)C1` yielded a normalised viability of 49.1%.

Same assay, conditions: 10000 nM; incubation time: 72 h
In the case of `NCCCNCCSP(=O)(O)O` [Amifostine], the normalised viability is reported as 89.9%.
`Nc1nc2[nH]cc(CCc3ccc(C(=O)N[C@@H](CCC(=O)O)C(=O)O)cc3)c2c(=O)[nH]1` [Pemetrexed] gave a normalised viability of 55.4%.
Work on `C[C@H]1C[C@@H]2[C@H]([C@@H](O)C[C@@]3(C)[C@H]2CC[C@]3(O)C(=O)CO)[C@@]2(C)C=CC(=O)C=C12` [Methylprednisolone] yielded a normalised viability of 91%.
Work on `COc1cc([C@@H]2c3cc4c(cc3[C@@H](O[C@@H]3O[C@@H]5CO[C@@H](c6cccs6)O[C@H]5[C@H](O)[C@H]3O)[C@H]3COC(=O)[C@H]23)OCO4)cc(OC)c1O` [Teniposide] yielded a normalised viability of 26.4%.
`CCc1cncnc1N1CCN(Cc2nc3ccc(C(F)(F)F)cc3[nH]2)CC1` was tested, and the normalised viability was 110%.
`Oc1ncc(N(CCCl)CCCl)c(O)n1` [Uracil mustard] gave a normalised viability of 93.9%.

What follows are compounds tested on DU-4475 in the same assay as above. Details: 1000 nM; incubation time: 72 h.
Experimental: as §2
`COc1cc2c(Oc3ccc4[nH]c(C)cc4c3F)ncnc2cc1OCCCN1CCCC1` [Cediranib] was tested, and the normalised viability was 83.4%.
Work on `C=CC(=O)N1CCC[C@@H](n2nc(-c3ccc(Oc4ccccc4)cc3)c3c(N)ncnc32)C1` yielded a normalised viability of 97.8%.

Same assay, conditions: 10000 nM; incubation time: 72 h
`NCCCNCCSP(=O)(O)O` [Amifostine] gave a normalised viability of 90.6%.
Work on `Nc1nc2[nH]cc(CCc3ccc(C(=O)N[C@@H](CCC(=O)O)C(=O)O)cc3)c2c(=O)[nH]1` [Pemetrexed] yielded a normalised viability of 99.7%.
`C[C@H]1C[C@@H]2[C@H]([C@@H](O)C[C@@]3(C)[C@H]2CC[C@]3(O)C(=O)CO)[C@@]2(C)C=CC(=O)C=C12` [Methylprednisolone] gave a normalised viability of 87.4%.
For `COc1cc([C@@H]2c3cc4c(cc3[C@@H](O[C@@H]3O[C@@H]5CO[C@@H](c6cccs6)O[C@H]5[C@H](O)[C@H]3O)[C@H]3COC(=O)[C@H]23)OCO4)cc(OC)c1O` [Teniposide], the normalised viability was -1.93%.
For `CCc1cncnc1N1CCN(Cc2nc3ccc(C(F)(F)F)cc3[nH]2)CC1`, the normalised viability was 91.8%.
Compound `Oc1ncc(N(CCCl)CCCl)c(O)n1` [Uracil mustard] has a normalised viability of 94.9%.

Each compound was assayed on HDQ-P1 in the same assay as above. Details: 1000 nM; incubation time: 72 h.
Experimental: as §2
`COc1cc2c(Oc3ccc4[nH]c(C)cc4c3F)ncnc2cc1OCCCN1CCCC1` [Cediranib] showed a normalised viability of 94.6%.
For `C=CC(=O)N1CCC[C@@H](n2nc(-c3ccc(Oc4ccccc4)cc3)c3c(N)ncnc32)C1`, the normalised viability was 69.1%.

Same assay, conditions: 10000 nM; incubation time: 72 h
`NCCCNCCSP(=O)(O)O` [Amifostine] showed a normalised viability of 100%.
`Nc1nc2[nH]cc(CCc3ccc(C(=O)N[C@@H](CCC(=O)O)C(=O)O)cc3)c2c(=O)[nH]1` [Pemetrexed] gave a normalised viability of 106%.
`C[C@H]1C[C@@H]2[C@H]([C@@H](O)C[C@@]3(C)[C@H]2CC[C@]3(O)C(=O)CO)[C@@]2(C)C=CC(=O)C=C12` [Methylprednisolone] showed a normalised viability of 123%.
With `COc1cc([C@@H]2c3cc4c(cc3[C@@H](O[C@@H]3O[C@@H]5CO[C@@H](c6cccs6)O[C@H]5[C@H](O)[C@H]3O)[C@H]3COC(=O)[C@H]23)OCO4)cc(OC)c1O` [Teniposide] the normalised viability was 53.2%.
`CCc1cncnc1N1CCN(Cc2nc3ccc(C(F)(F)F)cc3[nH]2)CC1` showed a normalised viability of 110%.
With `Oc1ncc(N(CCCl)CCCl)c(O)n1` [Uracil mustard] the normalised viability was 110%.

Each compound was assayed on CAL-148 in the same assay as above. Details: 1000 nM; incubation time: 72 h.
Experimental: as §2
`COc1cc2c(Oc3ccc4[nH]c(C)cc4c3F)ncnc2cc1OCCCN1CCCC1` [Cediranib] gave a normalised viability of 113%.
With `C=CC(=O)N1CCC[C@@H](n2nc(-c3ccc(Oc4ccccc4)cc3)c3c(N)ncnc32)C1` the normalised viability was 76.3%.

Same assay, conditions: 10000 nM; incubation time: 72 h
With `NCCCNCCSP(=O)(O)O` [Amifostine] the normalised viability was 95.2%.
`Nc1nc2[nH]cc(CCc3ccc(C(=O)N[C@@H](CCC(=O)O)C(=O)O)cc3)c2c(=O)[nH]1` [Pemetrexed] was tested, and the normalised viability was 66.5%.
With `C[C@H]1C[C@@H]2[C@H]([C@@H](O)C[C@@]3(C)[C@H]2CC[C@]3(O)C(=O)CO)[C@@]2(C)C=CC(=O)C=C12` [Methylprednisolone] the normalised viability was 106%.
`COc1cc([C@@H]2c3cc4c(cc3[C@@H](O[C@@H]3O[C@@H]5CO[C@@H](c6cccs6)O[C@H]5[C@H](O)[C@H]3O)[C@H]3COC(=O)[C@H]23)OCO4)cc(OC)c1O` [Teniposide] showed a normalised viability of 0.81%.
`CCc1cncnc1N1CCN(Cc2nc3ccc(C(F)(F)F)cc3[nH]2)CC1` was tested, and the normalised viability was 108%.
Compound `Oc1ncc(N(CCCl)CCCl)c(O)n1` [Uracil mustard] has a normalised viability of 105%.

What follows are compounds tested on CAL-51 in the same assay as above. Details: 1000 nM; incubation time: 72 h.
Experimental: as §2
Compound `COc1cc2c(Oc3ccc4[nH]c(C)cc4c3F)ncnc2cc1OCCCN1CCCC1` [Cediranib] has a normalised viability of 74.1%.
`C=CC(=O)N1CCC[C@@H](n2nc(-c3ccc(Oc4ccccc4)cc3)c3c(N)ncnc32)C1` was tested, and the normalised viability was 86.5%.

Same assay, conditions: 10000 nM; incubation time: 72 h
`NCCCNCCSP(=O)(O)O` [Amifostine] was tested, and the normalised viability was 108%.
For `Nc1nc2[nH]cc(CCc3ccc(C(=O)N[C@@H](CCC(=O)O)C(=O)O)cc3)c2c(=O)[nH]1` [Pemetrexed], the normalised viability was 91%.
In the case of `C[C@H]1C[C@@H]2[C@H]([C@@H](O)C[C@@]3(C)[C@H]2CC[C@]3(O)C(=O)CO)[C@@]2(C)C=CC(=O)C=C12` [Methylprednisolone], the normalised viability is reported as 92.5%.
With `COc1cc([C@@H]2c3cc4c(cc3[C@@H](O[C@@H]3O[C@@H]5CO[C@@H](c6cccs6)O[C@H]5[C@H](O)[C@H]3O)[C@H]3COC(=O)[C@H]23)OCO4)cc(OC)c1O` [Teniposide] the normalised viability was 3.14%.
`CCc1cncnc1N1CCN(Cc2nc3ccc(C(F)(F)F)cc3[nH]2)CC1` gave a normalised viability of 64%.
Work on `Oc1ncc(N(CCCl)CCCl)c(O)n1` [Uracil mustard] yielded a normalised viability of 91.6%.

Each compound was assayed on MDA-MB-453 in the same assay as above. Details: 1000 nM; incubation time: 72 h.
Experimental: as §2
With `COc1cc2c(Oc3ccc4[nH]c(C)cc4c3F)ncnc2cc1OCCCN1CCCC1` [Cediranib] the normalised viability was 77.9%.
`C=CC(=O)N1CCC[C@@H](n2nc(-c3ccc(Oc4ccccc4)cc3)c3c(N)ncnc32)C1` gave a normalised viability of 26.5%.

Same assay, conditions: 10000 nM; incubation time: 72 h
`NCCCNCCSP(=O)(O)O` [Amifostine] showed a normalised viability of 86.4%.
`Nc1nc2[nH]cc(CCc3ccc(C(=O)N[C@@H](CCC(=O)O)C(=O)O)cc3)c2c(=O)[nH]1` [Pemetrexed] gave a normalised viability of 92.6%.
Compound `C[C@H]1C[C@@H]2[C@H]([C@@H](O)C[C@@]3(C)[C@H]2CC[C@]3(O)C(=O)CO)[C@@]2(C)C=CC(=O)C=C12` [Methylprednisolone] has a normalised viability of 75.7%.
`COc1cc([C@@H]2c3cc4c(cc3[C@@H](O[C@@H]3O[C@@H]5CO[C@@H](c6cccs6)O[C@H]5[C@H](O)[C@H]3O)[C@H]3COC(=O)[C@H]23)OCO4)cc(OC)c1O` [Teniposide] was tested, and the normalised viability was 30.6%.
For `CCc1cncnc1N1CCN(Cc2nc3ccc(C(F)(F)F)cc3[nH]2)CC1`, the normalised viability was 54.6%.
Work on `Oc1ncc(N(CCCl)CCCl)c(O)n1` [Uracil mustard] yielded a normalised viability of 104%.
